Laboratory results published in ChEMBL document CHEMBL1141429, “Ecdysteroids from the Antarctic tunicate Synoicum adareanum” (J Nat Prod, 2007).

What was measured:
HCT-116 = assay: Cytotoxicity against human HCT116 cells after 3 days by disk diffusion assay; type: functional, cell-based; settings: for IC50: HCT-116, 72 h
H125M = assay: Cytotoxicity against human H125M cells after 3 days by disk diffusion assay; type: functional, cell-based
L1210 = assay: Cytotoxicity against […] cells after 3 days by disk diffusion assay; type: functional, cell-based
CCRF-CEM = assay: Cytotoxicity against human CCRF-CEM cells after 3 days by disk diffusion assay; type: functional, cell-based
[1] = Cytotoxicity against human CFU-GM cells after 3 days by disk diffusion assay; type: cell-based; settings: 72 h

C[C@H](CCC(C)(C)O)[C@H]1CCC(=O)[C@]23CC(=O)C4=C[C@H](O)[C@H](O)C[C@]4(C)[C@H]2CC[C@]13C [ABEOHYOUSTERONE] gave an IC50 (HCT-116) of 3 µM.
With C[C@H](CCCC(C)(C)O)[C@H]1CC[C@H]2C3=CC(=O)C4=C[C@H](O)[C@H](O)C[C@]4(C)[C@H]3CC[C@]12C [DIAULUSTEROL B] the Activity (HCT-116) was “Not toxic”, the Activity (H125M) was “Not toxic” and the Activity (L1210) was “Not toxic”. For the same molecule, the Activity (CCRF-CEM) was “Not toxic” and the Activity [1] was “Non-toxic”.
In the case of C[C@H](CCCC(C)(C)O)[C@H]1CC[C@]2(O)C3=CC(=O)C4=C[C@H](O)[C@H](O)C[C@]4(C)[C@@]3(O)CC[C@]12C [HYOUSTERONE D], the Activity (HCT-116) is reported as “Not toxic”, the Activity (H125M) is reported as “Not toxic” and the Activity (L1210) is reported as “Not toxic”. The Activity (CCRF-CEM) was “Not toxic” and the Activity [1] was “Non-toxic”.
Work on C[C@H](CCCC(C)(C)O)[C@H]1CC[C@@]2(O)C3=CC(=O)C4=C[C@H](O)[C@H](O)C[C@]4(C)[C@@]3(O)CC[C@]12C [HYOUSTERONE C] yielded an IC50 (HCT-116) of 3.7 µM.
C[C@H](CCCC(C)(C)O)[C@H]1CC[C@@]2(O)C3=CC(=O)C4=C[C@H](O)[C@H](O)C[C@]4(C)[C@H]3CC[C@]12C [HYOUSTERONE A] showed an IC50 (HCT-116) of 10.7 µM.
In the case of C[C@H](CCCC(C)(C)O)[C@H]1CC[C@]2(O)C3=CC(=O)C4=C[C@H](O)[C@H](O)C[C@]4(C)[C@H]3CC[C@]12C [HYOUSTERONE B], the Activity (HCT-116) is reported as “Not toxic”, the Activity (H125M) is reported as “Not toxic” and the Activity (L1210) is reported as “Not toxic”. For the same molecule, the Activity (CCRF-CEM) was “Not toxic” and the Activity [1] was “Non-toxic”.
